Patent US20070117743A1, “New antitumoral compounds” (priority 2003, published 2007)
Where two headings read alike, the source gives them in different places. Where a SMILES comes first, the peptide text is derived from it. Bridges are numbered along the chain shown (N, C = ends). [ ]: non-standard residue; d: D form. The star is where a group is joined. d(aIle) = CC[C@H](C)[C@@H](N)C(=O)O; d(aThr) = C[C@@H](O)[C@@H](N)C(=O)O; Hexanoyl(5-Me) = CC(C)CCCC(=O)*; Orn = NCCC[C@H](N)C(=O)O; Dhb = C/C=C(\N)C(=O)O

What was measured:
Format in all cases: cell-based, human
A-549 = assay: SRB colorimetric assay of cell growth and viability, A-549; conditions: 48 hours exposure
MB-231 = assay: SRB colorimetric assay of cell growth and viability, MB-231; conditions: MB-231 cells, 48 hours exposure
Source text: (§1) The finality of this assay is to interrupt the growth of a “in vitro” tumor cell culture by means a continued exhibition of the cells to the sample to be testing.
(§2) A colorimetric type of assay, using sulforhodamine B (SRB) reaction has been adapted for a quantitative measurement of cell growth and viability [following the technique described by Philip Skehan, et al. (1990), New colorimetric cytotoxicity assay for anticancer drug screening, J. Natl. Cancer Inst., 82:1107-1112].
(§3) This form of the assay employs 96 well cell culture microplates of 9 mm diameter (Faircloth, 1988; Mosmann, 1983). Most of the cell lines are obtained from American Type Culture Collection (ATCC) derived from different human cancer types.
(§4) Cells are maintained in RPMI 1640 10% FBS, supplemented with 0.1 g/l penicillin and 0.1 g/l streptomycin sulfate and then incubated at 37° C., 5% CO2 and 98% humidity. For the experiments, cells were harvested from subconfluent cultures using trypsin and resuspended in fresh medium before plating.
(§5) Cells are seeded in 96 well microtiter plates, at 5×10^3 cells per well in aliquots of 195 μL medium, and they are allowed to attach to the plate surface by growing in drug free medium for 18 hours. Afterward, samples are added in aliquots of 5 μL in a ranging from 10 to 10^−8 μg/mL, dissolved in DMSO:EtOH:PBS (0.5:0.5:99). After 48 hours exposure, the antitumor effect are measured by the SRB methodology: cells are fixed by adding 50 μL of cold 50% (wt/vol) trichloroacetic acid (TCA) and incubating for 60 minutes at 4° C. Plates are washed with deionized water and dried. One hundred μL of SRB solution (0.4% wt/vol in 1% acetic acid) is added to each microtiter well and incubated for 10 minutes at room temperature. Unbound SRB is removed by washing with 1% acetic acid. Plates are air dried and bound stain is solubilized with Tris buffer. Optical densities are read on a automated spectrophotometric plate reader at a single wavelength of 490 nm.
(§6) The values for mean+/− SD of data from triplicate wells are calculated. Some parameters for cellular responses can be calculated: GI=growth inhibition, TGI=total growth inhibition (cytostatic effect) and LC=cell killing (cytotoxic effect).

HT-29 = assay: SRB colorimetric assay of cell growth and viability, HT-29; conditions: 48 hours exposure
PANC-1 = assay: SRB colorimetric assay of cell growth and viability, PANC-1; conditions: 48 hours exposure; for CC50: read-out: LC50 PANC-1
LoVo = assay: SRB colorimetric assay of cell growth and viability, LoVo; conditions: 48 hours exposure; for CC50: read-out: LC50 LOVO
IGROV-1 = assay: SRB colorimetric assay of cell growth and viability, IGROV-1; conditions: 48 hours exposure
IGROV-ET = assay: SRB colorimetric assay of cell growth and viability, IGROV-ET; conditions: 48 hours exposure; for CC50: read-out: LC50 IGROV-ET
DU-145 = assay: SRB colorimetric assay of cell growth and viability, DU-145; conditions: 48 hours exposure
SK-OV-3 = assay: SRB colorimetric assay of cell growth and viability, SK-OV-3; conditions: 48 hours exposure; for GI50: read-out: GI50 SKOV-3; for CC50: read-out: LC50 SKOV-3
Source text: as §1, §2, §3, §4, §5, §6

LNCaP = assay: SRB colorimetric assay of cell growth and viability, LNCaP; conditions: 48 hours exposure; for GI50: read-out: GI50 LN-caP; for CC50: read-out: LC50 LN-caP
SK-MEL-28 = assay: SRB colorimetric assay of cell growth and viability, SK-MEL-28; conditions: 48 hours exposure; for CC50: read-out: LC50 MEL-28
K-562 = assay: SRB colorimetric assay of cell growth and viability, K-562; conditions: 48 hours exposure; for CC50: read-out: LC50 K-562
LoVo-Dox = assay: SRB colorimetric assay of cell growth and viability, LoVo-Dox; conditions: 48 hours exposure; for CC50: read-out: LC50 LOVO-DOX
Summary of the method: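 Human tumor cells seeded at 5×10^3/well in RPMI 1640 10% FBS, attached 18 hours, then exposed 48 hours to compound (10 to 10^−8 μg/mL). TCA-fixed, SRB-stained, OD 490 nm; triplicates give GI, TGI and LC values.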

Compound	GI50 (PANC-1) [nM]	TGI PANC-1 (PANC-1) [Molar]	CC50 (PANC-1) [nM]	GI50 (LoVo) [nM]	TGI LOVO (LoVo) [Molar]	CC50 (LoVo) [nM]	GI50 (IGROV-1) [nM]	LC50 (concentration causing 50% net cell killing) (IGROV-1) [nM]	TGI IGROV (IGROV-1) [Molar]	GI50 (IGROV-ET) [nM]	TGI IGROV-ET (IGROV-ET) [Molar]	CC50 (IGROV-ET) [nM]	TGI A-549 (A-549) [Molar]	GI50 (A-549; read-out: GI50 A-549) [nM]	CC50 (A-549; read-out: LC50 A-549) [nM]	GI50 (DU-145) [nM]	LC50 (concentration causing 50% net cell kill) (DU-145) [nM]	TGI DU-145 (DU-145) [Molar]	TGI SKOV-3 (SK-OV-3) [Molar]	GI50 (SK-OV-3) [nM]	further results
C/C=C1\NC(=O)[C@H](Cc2ccccc2)NC(=O)[C@@H](C(C)C)NC(=O)[C@@H]([C@@H](C)CC)NC(=O)[C@H](NC(=O)[C@H](NC(=O)[C@H](CCCN)NC(=O)[C@H]2CCCN2C(=O)[C@H](NC(=O)[C@@H](NC(=O)[C@@H](NC(=O)[C@H](N=C(N(C)C)N(C)C)C(C)C)[C@@H](C)O)C(C)C)C(C)C)[C@@H](C)CC)[C@@H](C)OC(=O)[C@H](C(C)C)NC1=O [Compound 103, [[C(═N(CH3)2)^14]-KF]	–	–	–	–	–	–	–	–	–	–	–	–	–	–	–	–	–	–	–	–	TGI (total growth inhibition) (A-549; A-549 cells, SRB): 6.83E−06 Molar; TGI (total growth inhibition) (MB-231): 6.83E−06 Molar; TGI (total growth inhibition) (HT-29; HT-29 cells, SRB): 6.83E−06 Molar
C/C=C1\NC(=O)[C@H](Cc2ccccc2)NC(=O)[C@@H](C(C)C)NC(=O)[C@@H]([C@@H](C)CC)NC(=O)[C@H](NC(=O)[C@@H](CS)NC(=O)[C@H](CCCN)NC(=O)[C@H]2CCCN2C(=O)[C@@H](CS)NC(=O)[C@@H](NC(=O)[C@@H](NC(=O)[C@H](NC(=O)CCCC(C)C)C(C)C)[C@@H](C)O)C(C)C)[C@@H](C)OC(=O)[C@H](C(C)C)NC1=O [Compound 108, [D-Cys^7, D-Cys^10]-KF] ({Hexanoyl(5-Me)}-[dV]TV[dC][dP][Orn][dC][d(aThr)][d(aIle)][dV]F[Dhb]V; ester 8-C)	–	–	–	–	–	–	–	–	–	–	–	–	–	–	–	–	–	–	–	–	TGI (total growth inhibition) (A-549; A-549 cells, SRB): 6.53E−06. Molar; GI50 (A-549; read-out: GI50 (growth inhibition at 50%), A-549 cells, SRB): 6530 nM; CC50 (A-549; read-out: LC50 (lethal concentration at 50%), A-549 cells, SRB): 6530 nM; TGI (total growth inhibition) (MB-231): 6.53E−06. Molar; TGI (total growth inhibition) (HT-29; HT-29 cells, SRB): 6.53E−06. Molar; GI50 (HT-29; read-out: GI50 (growth inhibition at 50%), HT-29 cells, SRB): 6530 nM; CC50 (HT-29; read-out: LC50 (lethal concentration at 50%), HT-29 cells, SRB): 6530 nM
C/C=C1\NC(=O)[C@H](Cc2ccccc2)NC(=O)[C@@H](C(C)C)NC(=O)[C@@H]([C@@H](C)CC)NC(=O)[C@H](NC(=O)[C@H](NC(=O)[C@H](CCCN)NC(=O)[C@H]2CCCN2C(=O)[C@H](NC(=O)CCCC(C)C)C(C)C)[C@@H](C)CC)[C@@H](C)OC(=O)[C@H](C(C)C)NC1=O [Compound 31, [noVal^11, noThr^12, noD-Val^13]-KF] ({Hexanoyl(5-Me)}-[dV][dP][Orn][d(aIle)][d(aThr)][d(aIle)][dV]F[Dhb]V; ester 5-C)	2120	3.63E−06	6230	8490	8.49E−06	8490	2690	6250	4.10E−06	2690	4.07E−06	6180	8.49E−06	5910	8490	3300	8490	6.37E−06	5.03E−06	2210	CC50 (SK-OV-3): 8490 nM; TGI HT-29 (HT-29): 8.49E−06 Molar; GI50 (HT-29; read-out: GI50 HT-29): 8490 nM; CC50 (HT-29; read-out: LC50 HT-29): 8490 nM; TGI LN-caP (LNCaP): 3.79E−06 Molar; GI50 (LNCaP): 1940 nM; CC50 (LNCaP): 7390 nM; GI50 (SK-MEL-28): 4210 nM; TGI MEL-28 (SK-MEL-28): 8.49E−06 Molar; CC50 (SK-MEL-28): 8490 nM; GI50 (K-562): 2210 nM; TGI K-562 (K-562): 4.26E−06 Molar; CC50 (K-562): 8180 nM; GI50 (LoVo-Dox): 2380 nM; TGI LOVO-DOX (LoVo-Dox): 4.00E−06 Molar; CC50 (LoVo-Dox): ≥ 6750 nM
C/C=C1\NC(=O)[C@H](Cc2ccccc2)NC(=O)[C@@H](C(C)C)NC(=O)[C@@H]([C@@H](C)CC)NC(=O)[C@H](NC(=O)[C@H](NC(=O)[C@H](CCC(=O)O)NC(=O)[C@H]2CCCN2C(=O)[C@H](NC(=O)[C@@H](NC(=O)[C@@H](NC(=O)[C@H](NC(=O)CCCC(C)C)C(C)C)[C@@H](C)O)C(C)C)C(C)C)[C@@H](C)CC)[C@@H](C)OC(=O)[C@H](C(C)C)NC1=O [Compound 4, [Glu^8]-KF] ({Hexanoyl(5-Me)}-[dV]TV[dV][dP]E[d(aIle)][d(aThr)][d(aIle)][dV]F[Dhb]V; ester 8-C)	1820	3.46E−06	6600	348	6.45E−07	2650	490	3310	1.29E−06	817	1.69E−06	3520	4.02E−06	1770	6700	1030	3880	2.00E−06	5.85E−07	195	CC50 (SK-OV-3): 2260 nM; TGI HT-29 (HT-29): 2.00E−06 Molar; GI50 (HT-29; read-out: GI50 HT-29): 884 nM; CC50 (HT-29; read-out: LC50 HT-29): 4550 nM; TGI LN-caP (LNCaP): 1.19E−06 Molar; GI50 (LNCaP): 371 nM; CC50 (LNCaP): 3620 nM; GI50 (SK-MEL-28): 2950 nM; TGI MEL-28 (SK-MEL-28): 6.70E−06 Molar; CC50 (SK-MEL-28): 6700 nM; GI50 (K-562): 2110 nM; TGI K-562 (K-562): 5.10E−06 Molar; CC50 (K-562): 6700 nM; GI50 (LoVo-Dox): 757 nM; TGI LOVO-DOX (LoVo-Dox): 1.77E−06 Molar; CC50 (LoVo-Dox): 4150 nM
C/C=C1\NC(=O)[C@H](Cc2ccccc2)NC(=O)[C@@H](C(C)C)NC(=O)[C@@H]([C@@H](C)CC)NC(=O)[C@H](NC(=O)[C@H](NC(=O)[C@H](CCCN)NC(=O)[C@H]2CCCN2C(=O)[C@H](NC(=O)[C@@H](NC(=O)[C@@H](NC(=O)[C@H](NC(=O)Cc2ccc(C(F)(F)F)cc2)C(C)C)[C@@H](C)O)C(C)C)C(C)C)[C@@H](C)CC)[C@@H](C)OC(=O)[C@H](C(C)C)NC1=O [Compound 25, [p-CF3PhAc^14]-KF]	1580	3.07E−06	5960	203	4.59E−07	1610	252	1960	4.54E−07	200	3.23E−07	521	9.67E−07	297	3240	251	2380	7.86E−07	3.29E−07	126	CC50 (SK-OV-3): 1130 nM; TGI HT-29 (HT-29): 1.41E−06 Molar; GI50 (HT-29; read-out: GI50 HT-29): 555 nM; CC50 (HT-29; read-out: LC50 HT-29): 3320 nM; TGI LN-caP (LNCaP): 1.19E−06 Molar; GI50 (LNCaP): 320 nM; CC50 (LNCaP): 3660 nM; GI50 (SK-MEL-28): 1400 nM; TGI MEL-28 (SK-MEL-28): 2.14E−05 Molar; CC50 (SK-MEL-28): 4060 nM; GI50 (K-562): 1420 nM; TGI K-562 (K-562): 3.06E−06 Molar; CC50 (K-562): 6440 nM; GI50 (LoVo-Dox): 176 nM; TGI LOVO-DOX (LoVo-Dox): 3.92E−07 Molar; CC50 (LoVo-Dox): 1430 nM
